According to ChEMBL document CHEMBL5042504 (J Med Chem, 2022):
Activity calls are given as the source filed them. The rule behind the calls is not given here.

What was measured:
Histone deacetylase 1 [1] = biological target: T1, Histone deacetylase 1 (Homo sapiens, UniProt Q13547); test: Inhibition of human recombinant HDAC1 using Boc-Lys(acetyl)-AMC substrate incubated for 2 hrs by fluorescence based assay
Histone deacetylase 3 [2] = biological target: T2, Histone deacetylase 3 (Homo sapiens, UniProt O15379); test: Inhibition of human recombinant HDAC3 using Boc-Lys(acetyl)-AMC substrate incubated for 2 hrs by fluorescence based assay
Histone deacetylase 2 = Histone deacetylase 2 (Homo sapiens, UniProt Q92769); test: Inhibition of human recombinant HDAC2 using Boc-Lys(acetyl)-AMC substrate incubated for 2 hrs by fluorescence based assay
[3] = Cmax in CD-1 mouse at 5 mg/kg, iv measured upto 24 hrs; format: ADME, organism-based; set-up: route intravenous, dose 5 mg/kg, time <=24; settings: in vivo
[4] = Cmax in CD-1 mouse at 20 mg/kg, po measured upto 24 hrs; format: ADME, organism-based; set-up: route oral, dose 20 mg/kg, time <=24; settings: CD-1, mouse, in vivo, read-out: Cmax
[5] = Half life in CD-1 mouse at 5 mg/kg, iv measured upto 24 hrs; format: ADME, organism-based; settings: in vivo
[6] = AUC (0 to infinity) in CD-1 mouse at 5 mg/kg, iv measured upto 24 hrs; format: ADME, organism-based; set-up: route intravenous, dose 5 mg/kg, time <=24; settings: in vivo
[7] = Oral bioavailability in CD-1 mouse at 20 mg/kg measured upto 24 hrs; format: ADME, organism-based; settings: in vivo
MV4-11 [8] = test: Down regulation of p21 expression in human MV4-11 cells at 200 nM measured after 24 hrs by Western blot analysis; format: functional, cell-based
MV4-11 [9] = test: Cell cycle arrest in human wt-p53 MV4-11 cells assessed as accumulation at G2/M-phase at 200 nM measured after 24 hrs realtive to control; format: functional, cell-based
MV4-11 [10] = test: Induction of apoptosis in human wt-p53 MV4-11 cells assessed as apoptotic cells at 200 nM measured after 24 hrs by FITC Annexin V/propidium iodide staining based flow cytometry (reference value: 9.14%); format: functional
MV4-11 [11] = test: Induction of apoptosis in human wt-p53 MV4-11 cells assessed as apoptotic cells at 500 nM measured after 24 hrs by FITC Annexin V/propidium iodide staining based flow cytometry (reference value: 9.14%); format: functional
HL-60 [12] = test: Induction of apoptosis in human p53 null HL-60 cells assessed as […] at 200 nM measured after 24 hrs by FITC Annexin V/propidium iodide staining based flow cytometry (reference value: 20.55%); format: functional; settings: read-out: Activity
HL-60 [13] = test: Induction of apoptosis in human p53 null HL-60 cells assessed as […] at 500 nM measured after 24 hrs by FITC Annexin V/propidium iodide staining based flow cytometry (reference value: 20.55%); format: functional; settings: read-out: Activity
MV4-11 [14] = test: Cell cycle arrest in human […] MV4-11 cells assessed as accumulation at G2/M-phase at 500 nM measured after 24 hrs realtive to control; format: functional, cell-based
HL-60 [15] = test: Cell cycle arrest in human […] HL60 cells assessed as accumulation at G2/M-phase at 200 nM measured after 24 hrs realtive to control; format: functional, cell-based
HL-60 [16] = test: Cell cycle arrest in human […] HL60 cells assessed as accumulation at G2/M-phase at 500 nM measured after 24 hrs realtive to control; format: functional, cell-based
[17] = Antitumor activity against human MV4-11 cells xenografted in BALB/c mouse assessed as tumor growth inhibition at 2 to 4 mg/kg, po administered for 24 days; format: functional; settings: dose 2-4 mg/kg, time 24 day
[18] = Drug uptake in BALB/c mouse xenografted with human AML MV4-11 cells assessed as tumor tissue at 4mg/kg, po measured after 0.5 to 6 hrs by LC-MS/MS; format: ADME, organism-based; settings: in vivo, time 0.5-6 hrs
[19] = Drug uptake in BALB/c mouse xenografted with human AML MV4-11 cells assessed as tumor tissue at 4 mg/kg ip measured after 0.5 to 6 hrs by LC-MS/MS; format: ADME, organism-based; settings: in vivo, time 0.5-6 hrs
[20] = Plasma concentration in BALB/c mouse xenografted with human AML MV4-11 cells at 4 mg/kg, ip; format: ADME, organism-based; settings: in vivo
Histone deacetylase 1 [21] = biological target: T1, Histone deacetylase 1; test: Mixed type inhibition of human HDAC1 (unknown origin) by Lineweaver-Burk plot analysis
Histone deacetylase 3 [22] = biological target: T2, Histone deacetylase 3; test: Non competitive type inhibition of human HDAC3 (unknown origin) by Lineweaver-Burk plot analysis
Histone deacetylase 1 [23] = biological target: T1, Histone deacetylase 1; test: Inhibition of HDAC1 (unknown origin)preincubated upto 2 hrs by fluorescence based assay; settings: time hrs <=2
Histone deacetylase 3 [24] = biological target: T2, Histone deacetylase 3; test: Inhibition of HDAC3(unknown origin) preincubated upto 2 hrs by fluorescence based assay; settings: time hrs <=2
MV4-11 [25] = test: Antitumor activity against human MV4-11 cells xenografted in balb/c mouse assessed as accumulation of AcHH3 protein level at 4 mg/kg, po measured after 2 hrs; format: functional, organism-based
MV4-11 [26] = test: Antitumor activity against human MV4-11 cells xenografted in balb/c mouse assessed as accumulation of AcHH4 protein level at 4 mg/kg, po measured after 2 hrs; format: functional, organism-based
MV4-11 [27] = test: Antitumor activity against human MV4-11 cells xenografted in balb/c mouse assessed as accumulation of AcHH4 protein level at 4 mg/kg, po measured after 8 hrs; format: functional, organism-based
[28] = Drug distribution in BALB/c mouse liver measured at 4 mg/kg, po or ip after 0.5 hrs after 0.5 hrs; format: ADME, organism-based; settings: in vivo
[29] = Drug distribution in BALB/c mouse gut measured at 4 mg/kg, po or ip after 0.5 hrs after 0.5 hrs; format: ADME, organism-based; settings: in vivo
[30] = Drug distribution in BALB/c mouse heart measured at 4 mg/kg, po or ip after 0.5 hrs after 0.5 hrs; format: ADME, organism-based; settings: in vivo
[31] = Drug distribution in BALB/c mouse spleen measured at 4 mg/kg, po or ip after 2 to 8 hrs after 0.5 hrs; format: ADME, organism-based; settings: in vivo, time 2-8 hrs
[32] = Drug distribution in BALB/c mouse gut measured at 4 mg/kg, po or ip after 2 to 8 hrs after 0.5 hrs; format: ADME, organism-based; settings: in vivo, time 2-8 hrs
[33] = Drug distribution in BALB/c mouse heart measured at 4 mg/kg, po or ip after 2 to 8 hrs after 0.5 hrs; format: ADME, organism-based; settings: in vivo, time 2-8 hrs
[34] = Drug distribution in BALB/c mouse lung measured at 4 mg/kg, po or ip after 2 to 8 hrs after 0.5 hrs; format: ADME, organism-based; settings: in vivo, time 2-8 hrs
[35] = Drug metabolism in BALB/c mouse liver assessed as metabolized compound; format: ADME, tissue-based
[36] = Toxicity in BALB/c mouse xenografted with MV4-11 cells assessed as body weight loss
[37] = Toxicity in BALB/c mouse assessed as induction of pathological changes in liver by H and E staining based analysis; format: tissue-based; settings: in vivo
[38] = Toxicity in BALB/c mouse assessed as induction of pathological changes in lung by H and E staining based analysis; format: tissue-based; settings: in vivo
[39] = Toxicity in BALB/c mouse assessed as induction of pathological changes in spleen by H and E staining based analysis; format: tissue-based; settings: in vivo
[40] = Antitumor activity against human MV4-11 cells xenografted in BALB/c mouse assessed as growth inhibition at 2 to 4 mg/kg, po ad; format: functional; settings: dose 2-4 mg/kg, time 24 day
[41] = Drug distribution in tumor of BALB/c mouse xenografted with human MV4-11 cells assessed as measured after 0.5 hrs; format: ADME; settings: read-out: Ct

T2 sequence (O15379 whole entry): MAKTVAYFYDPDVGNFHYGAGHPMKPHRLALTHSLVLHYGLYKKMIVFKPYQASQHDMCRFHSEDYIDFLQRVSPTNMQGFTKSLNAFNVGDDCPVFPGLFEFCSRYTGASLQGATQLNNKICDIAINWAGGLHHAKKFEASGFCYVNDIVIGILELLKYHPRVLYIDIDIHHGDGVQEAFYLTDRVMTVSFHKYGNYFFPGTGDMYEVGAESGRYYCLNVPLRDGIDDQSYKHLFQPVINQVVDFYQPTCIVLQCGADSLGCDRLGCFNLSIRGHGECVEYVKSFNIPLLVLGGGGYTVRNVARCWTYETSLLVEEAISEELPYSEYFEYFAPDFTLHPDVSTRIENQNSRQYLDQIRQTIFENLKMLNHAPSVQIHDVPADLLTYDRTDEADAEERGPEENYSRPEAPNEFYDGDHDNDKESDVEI
T1 sequence (Q13547 whole entry): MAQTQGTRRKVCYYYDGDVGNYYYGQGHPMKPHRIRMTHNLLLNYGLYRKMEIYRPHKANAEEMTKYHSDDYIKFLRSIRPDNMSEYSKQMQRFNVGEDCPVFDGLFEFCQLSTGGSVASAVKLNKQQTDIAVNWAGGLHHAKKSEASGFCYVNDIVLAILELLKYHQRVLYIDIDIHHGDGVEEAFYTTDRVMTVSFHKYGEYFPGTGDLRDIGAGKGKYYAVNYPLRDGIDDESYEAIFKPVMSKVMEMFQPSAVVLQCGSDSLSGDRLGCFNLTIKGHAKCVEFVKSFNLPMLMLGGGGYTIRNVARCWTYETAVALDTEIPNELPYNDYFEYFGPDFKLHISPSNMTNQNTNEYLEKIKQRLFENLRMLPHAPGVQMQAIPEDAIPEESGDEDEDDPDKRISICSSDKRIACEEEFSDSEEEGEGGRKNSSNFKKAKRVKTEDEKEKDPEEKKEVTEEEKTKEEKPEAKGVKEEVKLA
Chain of Histone deacetylase 2 (Q92769 whole entry): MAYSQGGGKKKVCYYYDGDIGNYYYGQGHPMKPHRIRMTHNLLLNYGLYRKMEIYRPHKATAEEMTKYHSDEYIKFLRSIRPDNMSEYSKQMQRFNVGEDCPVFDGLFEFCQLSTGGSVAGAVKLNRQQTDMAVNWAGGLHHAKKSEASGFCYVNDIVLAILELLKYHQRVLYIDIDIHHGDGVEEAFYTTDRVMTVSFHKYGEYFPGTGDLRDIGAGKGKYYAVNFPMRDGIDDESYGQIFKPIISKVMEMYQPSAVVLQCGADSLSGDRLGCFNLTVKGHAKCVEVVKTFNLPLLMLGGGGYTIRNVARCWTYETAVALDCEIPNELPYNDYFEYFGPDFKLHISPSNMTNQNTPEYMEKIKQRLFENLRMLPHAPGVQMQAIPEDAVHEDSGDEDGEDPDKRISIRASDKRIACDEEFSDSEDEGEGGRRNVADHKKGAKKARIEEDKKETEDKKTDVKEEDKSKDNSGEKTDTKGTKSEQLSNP

- IC50 (Histone deacetylase 1 [1]): 3.01 nM
- IC50 (Histone deacetylase 3 [2]): 0.44 nM
- IC50 (Histone deacetylase 2): 18.5 nM
- Cmax [3]: 21600 ng/mL
- Cmax [4]: 38800 ng/mL
- half-life [5]: 6.75 h
- AUC [6]: 32179 ng·h/mL
- F [7]: 112%
- Drug uptake [18]: Active
- Drug uptake [19]: Active
- Drug uptake [20]: Active
- IC50 (Histone deacetylase 1 [21]): 1.5 nM
- IC50 (Histone deacetylase 3 [22]): 0.56 nM
- Activity (Histone deacetylase 1 [23]): Active
- Activity (Histone deacetylase 3 [24]): Active
- Drug uptake [28]: Active
- Drug uptake [29]: Active
- Drug uptake [30]: Active
- Drug uptake [31]: Active
- Drug uptake [32]: Active
- Drug uptake [33]: Active
- Drug uptake [34]: Active
- Drug metabolism [35]: Metabolite_Detected
- concentration at 0.5 h [41]: 1130 ng/g
Structure (SMILES): CCCNNC(=O)c1ccc(CNC(=O)c2cc3ccccc3[nH]2)cc1
- Activity (MV4-11 [8]): Active
- Activity (MV4-11 [9]): Active
- Activity (MV4-11 [10]): 71.2%
- Activity (MV4-11 [11]): 88.1%
- viability at 0.2 µM (HL-60 [12]): 32.6%
- viability at 0.5 µM (HL-60 [13]): 44.8%
- Activity (MV4-11 [14]): Active
- Activity (HL-60 [15]): Active
- Activity (HL-60 [16]): Active
- TGI [17]: 78.9%
- Activity (MV4-11 [25]): Active
- Activity (MV4-11 [26]): Active
- Activity (MV4-11 [27]): Active
- Activity [36]: Non-Toxic
- Activity [37]: Non-Toxic
- Activity [38]: Non-Toxic
- Activity [39]: Non-Toxic
- T/C [40]: 22.2%
